Measured values reported in PubChem BioAssay AID248 (DTP/NCI, 2004).
Toxic doses and inconclusive results are not listed. Cut-off read from the data, not from the text of the source: active = T/C of 150% or more; inactive = T/C below 125%. Square brackets hold non-standard residues; d marks the D form. Peptide text beside a SMILES is read from it. * marks the point of attachment. ξ: configuration not given here. Cbz = O=C(OCc1ccccc1)*; ξL = CC(C)CC(N)C(=O)O

System: L1210 leukemia ip in BDF1 mice, survival T/C
Experiment: NCI In Vivo Anticancer Drug Screen. Data for tumor model L1210 Leukemia (intraperitoneal) in B6D2F1 (BDF1) mice
Conditions: endpoint: mean survival time, higher = longer survival
Method in brief: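 Read-out is survival time, reported as the treated-group measurement over the vehicle-control measurement.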

[1] = dose: 100.0 mg/kg/injection, schedule: Q01DX001 (ip), vehicle: saline
[2] = dose: 100.0 mg/kg/injection, schedule: Q01DX009 (ip), vehicle: saline
[3] = dose: 100.0 mg/kg/injection, schedule: Q04DX003 (ip), vehicle: acetone
[4] = dose: 200.0 mg/kg/injection, schedule: Q01DX001 (ip), vehicle: saline
[5] = dose: 200.0 mg/kg/injection, schedule: Q01DX009 (ip), vehicle: saline
[6] = dose: 200.0 mg/kg/injection, schedule: Q04DX003 (ip), vehicle: acetone
[7] = dose: 400.0 mg/kg/injection, schedule: Q01DX001 (ip), vehicle: saline
[8] = dose: 100.0 mg/kg/injection, schedule: Q01DX009 (ip), vehicle: saline sonified
[9] = dose: 100.0 mg/kg/injection, schedule: Q04DX003 (ip), vehicle: Klucel (hydroxypropylcellulose) (HPC)
[10] = dose: 200.0 mg/kg/injection, schedule: Q01DX009 (ip), vehicle: saline sonified
[11] = dose: 200.0 mg/kg/injection, schedule: Q04DX003 (ip), vehicle: Klucel (hydroxypropylcellulose) (HPC)
[12] = dose: 400.0 mg/kg/injection, schedule: Q04DX003 (ip), vehicle: Klucel (hydroxypropylcellulose) (HPC)
[13] = dose: 100.0 mg/kg/injection, schedule: Q01DX009 (ip), vehicle: Klucel (hydroxypropylcellulose) (HPC)
[14] = dose: 200.0 mg/kg/injection, schedule: Q01DX009 (ip), vehicle: Klucel (hydroxypropylcellulose) (HPC)
[15] = dose: 400.0 mg/kg/injection, schedule: Q01DX009 (ip), vehicle: Klucel (hydroxypropylcellulose) (HPC)
[16] = dose: 75.0 mg/kg/injection, schedule: Q01DX001 (ip), vehicle: other
[17] = dose: 50.0 mg/kg/injection, schedule: Q01DX001 (ip), vehicle: carboxymethylcellulose (CMC)
[18] = dose: 100.0 mg/kg/injection, schedule: Q01DX001 (ip), vehicle: carboxymethylcellulose (CMC)
[19] = dose: 200.0 mg/kg/injection, schedule: Q01DX001 (ip), vehicle: carboxymethylcellulose (CMC)
[20] = dose: 400.0 mg/kg/injection, schedule: Q01DX001 (ip), vehicle: carboxymethylcellulose (CMC)
[21] = dose: 100.0 mg/kg/injection, schedule: Q04DX002 (ip), vehicle: Klucel (hydroxypropylcellulose) (HPC)
[22] = dose: 200.0 mg/kg/injection, schedule: Q04DX002 (ip), vehicle: Klucel (hydroxypropylcellulose) (HPC)
[23] = dose: 400.0 mg/kg/injection, schedule: Q04DX002 (ip), vehicle: Klucel (hydroxypropylcellulose) (HPC)
[24] = dose: 100.0 mg/kg/injection, schedule: Q04DX003 (ip), vehicle: saline with Tween-80
[25] = dose: 200.0 mg/kg/injection, schedule: Q04DX003 (ip), vehicle: saline with Tween-80
[26] = dose: 400.0 mg/kg/injection, schedule: Q04DX003 (ip), vehicle: saline with Tween-80
[27] = dose: 100.0 mg/kg/injection, schedule: Q01DX009 (ip), vehicle: saline with Tween-80
[28] = dose: 200.0 mg/kg/injection, schedule: Q01DX009 (ip), vehicle: saline with Tween-80
[29] = dose: 400.0 mg/kg/injection, schedule: Q01DX009 (ip), vehicle: saline with Tween-80
[30] = dose: 50.0 mg/kg/injection, schedule: Q01DX001 (ip), vehicle: saline
[31] = dose: 50.0 mg/kg/injection, schedule: Q04DX003 (ip), vehicle: saline
[32] = dose: 100.0 mg/kg/injection, schedule: Q04DX003 (ip), vehicle: saline
[33] = dose: 200.0 mg/kg/injection, schedule: Q04DX003 (ip), vehicle: saline

Measured: T/C

CCCS(=O)(=O)c1ccc(C)cc1
inactive: [1] 98 % of control | [2] 94 % of control | [3] 100 % of control | [4] 98 % of control | [5] 93 % of control | [6] 102 % of control | [7] 107 % of control | dose: 400.0 mg/kg/injection, schedule: Q01DX009 (ip), vehicle: saline 93 % of control | dose: 400.0 mg/kg/injection, schedule: Q04DX003 (ip), vehicle: acetone 100 % of control

CCCCOC(=O)c1ccc(OCCOc2ccc(C(C)(C)CC(C)(C)C)cc2)c(NC(=O)CC(=O)c2cccc(N)c2)c1
inactive: [8] 97 % of control | [9] 96 % of control | [10] 91 % of control | [11] 93 % of control | dose: 400.0 mg/kg/injection, schedule: Q01DX009 (ip), vehicle: saline sonified 103 % of control | [12] 88 % of control

c1ccc(-c2oc(-c3ccccc3)c3c2CCCC3)cc1
inactive: [13] 100 % of control | [14] 98 % of control | [15] 98 % of control

Brc1ccccc1C[n+]1cccc2ccccc21
inactive: [16] 101 % of control

CCC(O)C[As](=O)(O)c1ccc(Cl)cc1 (stereo not given)
inactive: dose: 1.56 mg/kg/injection, schedule: Q01DX009 (ip), vehicle: saline with Tween-80 97 % of control

Oc1ccccc1/C=N/Nc1nnc(N/N=C/c2ccccc2O)c2ccccc12
inactive: [17] 109 % of control | [18] 96 % of control | [19] 97 % of control | [20] 90 % of control

C=C(C)C1CCC2=CCCC(C)C2(C)C1 (stereo not given)
inactive: [3] 98 % of control | [6] 96 % of control

O=C(NSNc1ccccc1)c1ccccc1
inactive: [21] 110 % of control | [22] 103 % of control | [23] 100 % of control

c1ccc(P2(c3ccccc3)(c3ccccc3)C3C4C5C6C4C2C6C53)cc1 (stereo not given)
inactive: [24] 104 % of control | [25] 109 % of control | [26] 90 % of control

COc1cccc(CC(=O)NCCc2ccc(OC)c(OC)c2)c1
inactive: [27] 92 % of control | [24] 92 % of control | [28] 95 % of control | [25] 94 % of control | [29] 90 % of control | [26] 91 % of control

CN(C)c1ccc(/C=C\C=N\NC(=O)CCCC(=O)N/N=C/C=C/c2ccc(N(C)C)cc2)cc1
inactive: [30] 96 % of control | [1] 96 % of control | [4] 96 % of control | [7] 90 % of control

C=CCOC(OCC=C)C(OCC=C)OCC=C
inactive: [28] 97 % of control | [29] 104 % of control

C=C(C)COc1ccc(C(=O)c2ccccc2)cc1
inactive: [21] 103 % of control | [22] 100 % of control | [23] 94 % of control

COc1ccc(NC(=O)Oc2cc(C)cc(C)c2)cc1
inactive: [13] 106 % of control | [9] 100 % of control | [14] 101 % of control | [11] 97 % of control | [15] 100 % of control | [12] 92 % of control

CNc1c(C)n(C)n(-c2ccccc2)c1=O.[Cl][Pd]([Cl])([Cl])[Cl]
inactive: [31] 106 % of control | [32] 111 % of control | [33] 100 % of control

O=C(CC(C(=O)O)N1CCOCC1)c1ccccc1 (stereo not given)
inactive: dose: 50.0 mg/kg/injection, schedule: Q01DX009 (ip), vehicle: saline sonified 99 % of control | [8] 97 % of control | [9] 97 % of control | [10] 97 % of control | [11] 92 % of control

Cc1csc[n+]1CCS(=O)(=O)[O-]
inactive: [1] 95 % of control | [4] 97 % of control | [7] 97 % of control

CCOC(=O)Cn1c(=O)c2ccccc2c2cc([N+](=O)[O-])ccc21
inactive: [9] 95 % of control | [11] 97 % of control | [12] 86 % of control

CC(CO)(CO)N=Cc1ccccc1O.CC(CO)(CO)N=Cc1ccccc1O.[Co]
inactive: [30] 108 % of control | [1] 97 % of control | [4] 106 % of control

CC(=O)Nc1ccc(/C=C/C(=O)c2ccc([N+](=O)[O-])cc2)cc1
inactive: [27] 94 % of control | [24] 91 % of control | [28] 94 % of control | [25] 94 % of control | [29] 94 % of control | [26] 90 % of control

O=C(O)C1(Nc2ccc(-c3ccc(Br)cc3)cc2)CCCC1
inactive: [17] 90 % of control | [18] 90 % of control | [19] 90 % of control | [20] 90 % of control

O=C1OCN(c2ccccc2)/C1=C/c1ccccc1
inactive: [1] 89 % of control | [4] 94 % of control | [7] 93 % of control

CCOC(=O)CNC(=O)OCCOc1ccccc1Cl
inactive: [27] 94 % of control | [28] 98 % of control | [29] 100 % of control

CCC(C)(C)c1ccc(Oc2ccccc2)c(N)c1
inactive: dose: 100.0 mg/kg/injection, schedule: Q01DX009 (ip), vehicle: other 88 % of control | [24] 104 % of control | dose: 200.0 mg/kg/injection, schedule: Q01DX009 (ip), vehicle: other 100 % of control | [25] 100 % of control | [26] 98 % of control

COC(=O)C(c1ccccc1)C1CCCCN1 (stereo not given)
inactive: dose: 6.25 mg/kg/injection, schedule: Q01DX009 (ip), vehicle: saline 105 % of control | dose: 12.5 mg/kg/injection, schedule: Q01DX009 (ip), vehicle: saline 98 % of control | dose: 25.0 mg/kg/injection, schedule: Q01DX009 (ip), vehicle: saline 96 % of control | dose: 25.0 mg/kg/injection, schedule: Q04DX003 (ip), vehicle: saline 97 % of control | dose: 50.0 mg/kg/injection, schedule: Q01DX009 (ip), vehicle: saline 100 % of control | [31] 97 % of control | [32] 108 % of control

O=[As](O)(O)c1ccc(OCCO)cc1
inactive: [2] 96 % of control | [5] 96 % of control

O=C(CCCCl)N1CCCC1
inactive: dose: 100.0 mg/kg/injection, schedule: Q04DX002 (ip), vehicle: saline 98 % of control | dose: 200.0 mg/kg/injection, schedule: Q04DX002 (ip), vehicle: saline 91 % of control | dose: 400.0 mg/kg/injection, schedule: Q04DX002 (ip), vehicle: saline 94 % of control

Clc1ccc(NC(Nc2ccc(Cl)cc2)C(Cl)(Cl)Cl)cc1
inactive: dose: 50.0 mg/kg/injection, schedule: Q01DX001 (ip), vehicle: Klucel (hydroxypropylcellulose) (HPC) 93 % of control | dose: 100.0 mg/kg/injection, schedule: Q01DX001 (ip), vehicle: Klucel (hydroxypropylcellulose) (HPC) 93 % of control | dose: 200.0 mg/kg/injection, schedule: Q01DX001 (ip), vehicle: Klucel (hydroxypropylcellulose) (HPC) 90 % of control

C=CCC(C)/C(C)=C(/C#N)C(=O)OCC (stereo not given)
inactive: [16] 107 % of control | dose: 150.0 mg/kg/injection, schedule: Q01DX001 (ip), vehicle: other 100 % of control

COC(=O)C(CC(C)C)NC(=O)CNC(=O)CNC(=O)OCc1ccccc1 (stereo not drawn) (Cbz-Gly-Gly-[ξL]-OMe)
inactive: [9] 105 % of control | [11] 96 % of control | [12] 96 % of control

C/C(=C(/CCO)SCC/C(=N/O)c1ccccc1)N(C=O)Cc1cnc(C)nc1N
inactive: [32] 104 % of control | [33] 97 % of control | dose: 400.0 mg/kg/injection, schedule: Q04DX003 (ip), vehicle: saline 93 % of control

O=C(Nc1cc(Cl)ccc1Cl)c1ccccc1Cl
inactive: [13] 94 % of control | [9] 102 % of control | [14] 87 % of control | [11] 97 % of control | [15] 92 % of control | [12] 91 % of control
